Data on 15 molecules can be found in PubChem BioAssay AID1963861 (Molecular Pharmacology Branch, DTP, NCI, 2024).

This experiment has as its system 885724-159-R-J1-PDC KRAS PDC multicell spheroid viability. Briefly: Anticancer human tumor 885724-159-R-J1-PDC patient-derived pancreatic adenocarcinoma cell line growth inhibition [KRAS2]. The note with it: for viability, T/C: stronger effect = lower value. The source says:
Multicellular complex tumor spheroid response to RAS pathway inhibitors in combination with a targeted agents in patient-derived cell lines with oncogenic KRAS variants from multiple cancer types
A high-throughput screen of multi-cell type tumor spheroids was designed to identify active combinations of targeted small molecules and KRAS pathway inhibitors. Complex spheroids include a stromal component modeled by human endothelial cells (HUVEC) and fibroblasts modeled by human mesenchymal stem cells (MSCs). The concentration ranges selected for each drug and investigational agent were based upon clinically achievable concentrations if the clinical Cmax of the agent was known.
Compounds. The drugs and investigational agents: BI-3406 (NSC825286), BAY-293 (NSC824723), batoprotafib (TNO155; NSC825523), sotorasib (AMG 510; NSC818433), MRTX1257 (NSC819558), elimusertib (BAY 1895344; NSC800525), molibresib (GSK525762; NSC774829), temuterkib (LY3214996; NSC803410), venetoclax (NSC766270), alisertib (NSC759677), olaparib (NSC753686), talazoparib (NSC767125), erdafitinib (NSC781556), ipatasertib (NSC767898), cabozantinib (NSC761068), nintedanib (NSC756659), abemaciclib (NSC768073), docetaxel (NSC628503), trametinib (NSC758246), and sapanisertib (NSC764658) were obtained from the National Cancer Institute (NCI) Developmental Therapeutics Program Chemical Repository. The FDA-approved anticancer drug set is available from the Developmental Therapeutics Program. […] The stock solutions were prepared in dimethyl sulfoxide (DMSO, Sigma-Aldrich, St. Louis, MO, cat. D2650) at 800-fold the tested concentration and stored at -70 degrees C prior to their use. All drugs and investigational agents were tested over a range starting from a high concentration at or near the clinical Cmax and decreasing in half-log increments. If the clinical Cmax for an agent had not been determined, the highest concentration tested was 10 microM.
Cell Culture. All cells were maintained in an incubator at 37 degrees C and 5% CO2 with 95% humidity. The PDC lines were cultured according to standard operating procedures established by the NCI PDMR (https://pdmr.cancer.gov/sops/default.htm). Briefly, all PDCs were thawed and cultured in Matrigel-coated flasks prepared with a working solution of 1X Ham's F-12 nutrient mix, without supplementation (Invitrogen, Waltham, MA, cat. 11765054), 100 U/mL penicillin-streptomycin (Invitrogen, cat. 15140122), and 2.5% Matrigel (Corning Inc., Corning, NY, cat. 354248) for the first three passages. All PDCs were cultured in complete DMEM/F-12 media containing advanced DMEM/F-12 (Invitrogen, cat. 12634028), 4.9% defined fetal bovine serum, heat inactivated (HyClone Laboratories Inc., Logan, UT, cat. SH30070.03HI), 389 ng/mL hydrocortisone (Sigma-Aldrich, cat. H4001), 9.7 ng/mL human EGF recombinant protein (Invitrogen, cat. PHG0313), 23.4 microg/mL adenine (Sigma-Aldrich, cat. A2786), 97.3 U/mL penicillin-streptomycin (Invitrogen, cat. 15140122), 1.9 mM L-glutamine (Invitrogen, cat. 25030081), and 9.7 microM Y-27632 dihydrochloride (Tocris Bioscience, Bristol, United Kingdom, cat. 1254). The PDCs were cultured in complete DMEM/F12 media without 9.7 microM Y-27632 dihydrochloride for at least two passages prior to the screen. The established cell line HOP-62 was cultured in RPMI 1640 medium, HEPES (Invitrogen, cat. 22400105) with 10% defined fetal bovine serum (HyClone Laboratories Inc., cat. SH30070.03) and 2 mM L-glutamine (Invitrogen, cat. 25030081). The pooled donor HUVEC were cultured in endothelial cell growth medium 2 (PromoCell, Heidelberg, Germany, cat. C-22011) and the hMSC were cultured in mesenchymal stem cell growth medium 2 (PromoCell, cat. C-28009). For all experiments, HUVEC and hMSC were used at passages </=5, while the malignant cell lines were used at passages </=15. […]

The mark [1] stands for this setting: compound alone, run of 08/19/2021.
[2] abbreviates: compound alone, run of 08/26/2021.
The mark [3] stands for this setting: compound alone, run of 09/02/2021.

Structures are written as SMILES. Values joined by “and” are separate entries in the source; they are usually repeats but may differ in a detail not shown here. Identical values can stand only once.
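Further: spheroids exposed to agents for 7 days before readout.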

Turning to `C=CC(=O)N1CCN(c2nc(OCC3CCCN3C)nc3c2CCN(c2cccc4cccc(C)c24)C3)CC1CC#N` (configuration not stated), the viability, T/C (as a rule, the result in the treated group divided by that in the control group, in per cent) reads like this: (compound 0.0316 µM) 103% [middle of 17 runs]; (compound 0.316 µM) 94.9% [middle of 17 runs]. For the same molecule, the IC50 – broadly, the midpoint of a concentration-inhibition curve – was > 3.16 µM and 2.89 µM and 2.93 µM under setting [1]; > 3.16 µM and 3.06 µM under setting [2]; > 3.16 µM and 2.96 µM and 2.89 µM under setting [3].
Turning to `CC(=O)Nc1cccc(-n2c(=O)n(C3CC3)c(=O)c3c(Nc4ccc(I)cc4F)n(C)c(=O)c(C)c32)c1`, the viability, T/C was 89.6% [middle of 5 runs] (compound 0.0001 µM); 68.2% [middle of 5 runs] (compound 0.000316 µM); 49.6% [middle of 5 runs] (compound 0.001 µM); 36.5% [middle of 5 runs] (compound 0.00316 µM); 25.7% [middle of 5 runs] (compound 0.01 µM); 18.6% [middle of 5 runs] (compound 0.0316 µM). For the same molecule, the IC50 (curve of compound) is 0.966 nM [middle of 5 runs].
On to `CC(=O)OC12COC1CC(O)C1(C)C(=O)C(O)C3=C(C)C(OC(=O)C(O)C(NC(=O)OC(C)(C)C)c4ccccc4)CC(O)(C(OC(=O)c4ccccc4)C21)C3(C)C` (configuration not stated), for which the viability, T/C (compound 0.01 µM) is 88.4% [middle of 5 runs]; the viability, T/C (compound 0.0316 µM) is 93.2% [middle of 5 runs]; the viability, T/C (compound 0.1 µM) is 102% [middle of 5 runs]; the viability, T/C (compound 1 µM) was 112% [middle of 5 runs]. For the same molecule, the IC50 (curve of compound) was over 3.16 µM.
For `CC(C)n1nc(-c2ccc3oc(N)nc3c2)c2c(N)ncnc21`, the viability, T/C is, setting by setting: (compound 0.000316 µM) 95.6% [middle of 5 runs]; (compound 0.001 µM) 74.4% [middle of 5 runs]; (compound 0.00316 µM) 65.9% [middle of 5 runs]; (compound 0.01 µM) 61.9% [middle of 5 runs]; (compound 0.0316 µM) 51% [middle of 5 runs]; (compound 0.1 µM) 46.5% [middle of 5 runs].
For `CC1(C)CCC(CN2CCN(c3ccc(C(=O)NS(=O)(=O)c4ccc(NCC5CCOCC5)c([N+](=O)[O-])c4)c(Oc4cnc5[nH]ccc5c4)c3)CC2)=C(c2ccc(Cl)cc2)C1`, the viability, T/C is, setting by setting: (compound 0.0316 µM) 100% [middle of 5 runs]; (compound 0.1 µM) 103% [middle of 5 runs]; (compound 0.316 µM) 100% [middle of 5 runs]; (compound 1 µM) 97.1% [middle of 5 runs]. In addition, the IC50 (curve of compound) was 9.05 µM [middle of 5 runs].
As to `CC1COCCN1c1cc(-c2ccnn2C)c2ccnc(-c3ccn[nH]3)c2n1` (configuration not stated), the viability, T/C by setting is: (compound 0.01 µM) 107% [middle of 5 runs]; (compound 0.0316 µM) 90.6% [middle of 5 runs]; (compound 0.1 µM) 69.9% [middle of 5 runs]; (compound 0.316 µM) 62.3% [middle of 5 runs]; (compound 1 µM) 56.6% [middle of 5 runs]; (compound 3.16 µM) 58.2% [middle of 5 runs]. Besides, the IC50 (curve of compound) is over 3.16 µM.
`CC1OCC2(CCN(c3cnc(Sc4ccnc(N)c4Cl)c(N)n3)CC2)C1N` (configuration not stated): the viability, T/C is 99.7% and 101% and 102% (compound 0.0316 µM); 92.4% [middle of 19 runs] (compound 0.1 µM); 71.4% [middle of 20 runs] (compound 3.16 µM). Further, the IC50 runs as follows: under setting [1], over 10 µM; under setting [2], over 10 µM; under setting [3], over 10 µM; (curve of compound) over 10 µM.
As for `CCN1CCN(Cc2ccc(Nc3ncc(F)c(-c4cc(F)c5nc(C)n(C(C)C)c5c4)n3)nc2)CC1`, the viability, T/C (compound 0.00316 µM) was 108% (2×) and 101% and 103% (2×); the viability, T/C (compound 0.01 µM) was 100% [middle of 5 runs]; the viability, T/C (compound 0.0316 µM) is 89.9% [middle of 5 runs]; the viability, T/C (compound 0.1 µM) was 88.7% [middle of 5 runs]; the viability, T/C (compound 0.316 µM) is 92.5% [middle of 5 runs]; the viability, T/C (compound 1 µM) is 94% [middle of 5 runs]. Further, the half-inhibitory concentration (IC50) (curve of compound) was over 1 µM.
Take `CCNC(=O)CC1N=C(c2ccc(Cl)cc2)c2cc(OC)ccc2-n2c(C)nnc21` (configuration not stated): the viability, T/C is 112% [middle of 5 runs] (compound 0.0316 µM); 102% [middle of 5 runs] (compound 0.1 µM); 78.4% [middle of 5 runs] (compound 0.316 µM); 66.7% [middle of 5 runs] (compound 1 µM); 59.7% [middle of 5 runs] (compound 3.16 µM); 51.8% [middle of 5 runs] (compound 10 µM). The IC50 (curve of compound) was > 10 µM and 8.28 µM.
Consider `CN(C)C/C=C/C(=O)Nc1cc2c(Nc3ccc(F)c(Cl)c3)ncnc2cc1O[C@H]1CCOC1`, for which the viability, T/C runs as follows: (compound 0.000316 µM) 107% [middle of 5 runs]; (compound 0.001 µM) 104% [middle of 5 runs]; (compound 0.01 µM) 95.3% [middle of 5 runs]; (compound 0.0316 µM) 81.5% [middle of 5 runs]; (compound 0.1 µM) 77.5% [middle of 5 runs]. Also, the IC50 (curve of compound) was over 0.1 µM.
Turning to `COc1cc(Nc2ncc3c(n2)-c2ccc(Cl)cc2C(c2c(F)cccc2OC)=NC3)ccc1C(=O)O`, the viability, T/C reads like this: (compound 0.0316 µM) 93.8% [middle of 5 runs]; (compound 0.1 µM) 89.1% [middle of 5 runs]; (compound 0.316 µM) 88.7% [middle of 5 runs]; (compound 1 µM) 90% [middle of 5 runs]; (compound 3.16 µM) 96.2% [middle of 5 runs]; (compound 10 µM) 98.4% [middle of 5 runs]. Also, the IC50 (curve of compound) was over 10 µM.
On to `COc1cc(OC)cc(N(CCNC(C)C)c2ccc3ncc(-c4cnn(C)c4)nc3c2)c1`, for which the viability, T/C reads like this: (compound 0.0316 µM) 103% [middle of 5 runs]; (compound 0.1 µM) 104% [middle of 5 runs]; (compound 0.316 µM) 109% [middle of 5 runs]; (compound 1 µM) 121% [middle of 5 runs]; (compound 3.16 µM) 142% [middle of 5 runs]; (compound 10 µM) 16.8% [middle of 5 runs]. The IC50 (curve of compound) is 6.96 µM [middle of 5 runs].
Consider `Cn1nccc1Nc1nccc(-c2cc3c(s2)C(C)(C)N(CCN2CCOCC2)C3=O)n1`, for which the viability, T/C by setting is: (compound 0.0316 µM) 99.9% and 99.7%; (compound 0.1 µM) 86.3% and 84.2%; (compound 0.316 µM) 59.1% and 65.2%; (compound 1 µM) 45.5% and 45.8%; (compound 3.16 µM) 35.7% and 37.9%; (compound 10 µM) 31.1% and 35.9%. Moreover, the IC50 (curve of compound) is 0.665 µM and 0.799 µM.
As for `Cn1ncnc1[C@H]1c2n[nH]c(=O)c3cc(F)cc(c23)N[C@@H]1c1ccc(F)cc1`, the viability, T/C is, setting by setting: (compound 0.000316 µM) 102% [middle of 5 runs]; (compound 0.001 µM) 102% [middle of 5 runs]; (compound 0.00316 µM) 97.3% [middle of 5 runs]; (compound 0.01 µM) 98.2% [middle of 5 runs]; (compound 0.0316 µM) 96.2% [middle of 5 runs]; (compound 0.1 µM) 91% [middle of 5 runs]. Besides, the IC50 (curve of compound) was over 0.1 µM.
As for `O=C(c1cc(Cc2n[nH]c(=O)c3ccccc23)ccc1F)N1CCN(C(=O)C2CC2)CC1`, the viability, T/C (compound 0.0316 µM) was 104% [middle of 5 runs]; the viability, T/C (compound 0.1 µM) was 106% [middle of 5 runs]; the viability, T/C (compound 0.316 µM) is 105% [middle of 5 runs]; the viability, T/C (compound 1 µM) was 106% [middle of 5 runs]; the viability, T/C (compound 3.16 µM) was 101% [middle of 5 runs]; the viability, T/C (compound 10 µM) is 82.5% [middle of 5 runs]. In addition, the IC50 (curve of compound) is over 10 µM.
